Source: US8957192B2, “Human cytotoxic T-lymphocyte epitope and its agonist epitope from the non-variable number of tandem repeat sequence of MUC-1” (The United States of America, as represented by the …, priority 2003, dated 2015)
Several values for one entry are separate records, joined by “and”; a condition that tells them apart may be missing. Equal entries are not always repeated.

Key:
T-1191-MUC-1 cells = assay: IFN-γ production (ELISA) by T-1191-MUC-1 cells stimulated with peptide-pulsed autologous B cells; format: cell-based, human; settings: T-1191-MUC-1 at IVS-3; autologous EBV-B cells pulsed 25 μg/ml; effector-to-APC 1:3; 24 h
Procedure: Supernatants of T cells exposed for 24 h to peptide-pulsed autologous EBV-transformed B cells, in IL-2-free medium at various peptide concentrations, were screened for secretion of IFN-γ using an ELISA kit (R & D Systems, Minneapolis, Minn.). The results were expressed in pg/ml. A CBA system (BD PharMingen, San Diego, Calif.) was also used to determine the secretion of multiple cytokines by specific T cells. The CBA system uses the fluorescence detection by flow cytometry to measure soluble analyses in a particles-based immunoassay. The BD human Th1/Th2 cytokine CBA Kit was used to measure IL-2, IL-4, IL-5, IL-10, TNF-α protein levels in a single sample. The cytokine capture beads were mixed with PE-conjugated detection antibodies and then incubated with recombinant cytokine standards or test samples to form sandwich complexes. The sample results were generated in graphic and tabular format, using BD PharMingen CBA analysis software. The results were expressed in pg/ml.
The specificity of the MUC-1-specific T cells generated (designated T-1191-MUC-1) was analyzed after IVS cycle 3 (see Materials and Methods) for their ability to release IFN-γ after stimulation with autologous B cells pulsed with each of the MUC-1 peptides listed in Table 1.

HLA-A2 molecule = HLA-A2 molecule (Homo sapiens, UniProt P04439, I166T/I218V/L300P/L318F/N151K/N90K/P208A/P217A/Q86G/Q94H/R138H/R169H/T345S); assay: T2 cell binding assay: peptide binding to HLA-A2 by flow cytometry; settings: Table 1; T2 cells, peptide 50 μg/ml
Procedure: In this assay, increased stability (accumulation) of HLA-A2 molecules on the surface of T2 cells as a consequence of peptide binding is measured by increased binding of antibody directed against HLA-A2 molecule. Briefly, 1×10^6 cells in serum-free Iscove's modified Dulbecco's complete medium were incubated with peptides at a concentration of 50 μg/ml in 24-well culture plates at 37° C. in 5% CO2. Flow cytometry for peptide binding was performed using T2 cells and single-color analysis. After cells were washed three times in DPBS, as described above, they were incubated for 1 h with a 1:100 dilution of HLA-A2-specific MAb (One Lambda, Inc.) per 10^6 cells. UPC-10 (Cappel/Organon Teknika) was used as isotype control. The cells were then washed three times and incubated with 1:100 dilution of FITC-labeled anti-mouse IgG (BD Biosciences). Analysis was conducted with the FACScan, as described above. Cells were maintained on ice during all cell preparation and staining.
The primary amino acid sequence of human MUC-1 was analyzed for consensus motifs for novel HLA-A2 binding peptides. […] The CEA CAP1-6D peptide and a NCA peptide were used as a positive and negative control, respectively.

[1] = test system: T-cell lines T-55, T-49, T-41; assay: IFN-γ production by T-cell lines from cancer patients established with rF-CEA/MUC/TRICOM-infected DCs; format: cell-based, human; settings: autologous DCs as APC; peptides 25 μg/ml; effector-to-APC 10:1; 24 h
[2] = test system: T-cell lines T-rV, T-rF, T-rF(CEA), T-rF(MUC); format: cell-based, human; settings: 24 h
[3] = test system: MUC-1-specific T-cell lines T-23-P-92, T-23-P-93L, T-18-P-92, T-18-P-93L; assay: IFN-γ production by T-cell lines from two pancreatic cancer subjects stimulated with peptide-pulsed DCs; format: cell-based, human; settings: IVS-4; allogeneic DCs pulsed 25 μg/ml; effector-to-APC 10:1; 24 h
[4] = test system: CEA-specific T cells (V8T); format: cell-based, human; settings: 24 h
[5] = test system: MUC-1-specific T cells (T-1191-P93L); format: cell-based, human; settings: 24 h

| Sequence | Production of IFN-γ, with peptide (T-1191-MUC-1 cells) [pg/mL] | T2 binding (HLA-A2 molecule) [relative fluorescence] | other results |
| --- | --- | --- | --- |
| LAFREGTINV [Peptide P-1105] | <52.3 | 461 |  |
| LIALAVCQC (YLIALAVCQC) [Peptide P-1177] | <52.3 | 338 |  |
| LQRDISEMFL [Peptide P-1069] | 288.0 | 433 |  |
| REGTINVHDV [Peptide P-1108] | <52.3 | 482 |  |
| TISDVSVSDV [Peptide P-1135] | 347.2 | 422 |  |
| TLASHSTKTD [Peptide P-1104] | 305.6 | 442 |  |
| VISNDVCAQV [PSA peptide, prostate-specific antigen (PSA) peptide, control] |  |  | IFN-γ secretion by T-41 [1]: <15.6 pg/mL; IFN-γ secretion by T-49 [1]: <15.6 pg/mL; IFN-γ secretion by T-55 [1]: <15.6 pg/mL |
| VLVALAIVYL [Peptide P-1169] | <52.3 | 369 |  |
| WGQDVTSVPV [Peptide P-94] | 323.6 | 591 |  |
| YLSGADLNL [CAP1-6D, reference compound] |  |  | Production of IFN-γ by T-rF [2]: 550.0 pg/mL; Production of IFN-γ by T-rF(CEA) [2]: 729.2 pg/mL; Production of IFN-γ by T-rF(MUC) [2]: <15.6 pg/mL; Production of IFN-γ by T-rV [2]: 976.3 pg/mL; IFN-γ secretion by T-41 [1]: 933.4 pg/mL; IFN-γ secretion by T-49 [1]: 974.2 pg/mL; IFN-γ secretion by T-55 [1]: >1,000 pg/ml; IFN-γ produced by T-18-P-92 [3]: <26 pg; IFN-γ produced by T-18-P-93L [3]: <26 pg; IFN-γ produced by T-23-P-92 [3]: <26 pg; IFN-γ produced by T-23-P-93L [3]: <26 pg; IFN-γ, CEA-specific CTL [4]: 772 pg/mL and 820 pg/mL; IFN-γ, MUC-1-specific CTL [5]: <15 pg/mL |
| YRPGENLNL [NCA, NCA peptide used as a negative control, reference compound] |  | 365 |  |
